We go through one molecule from patent publication US20100216848A1, “LIQUID PHARMACEUTICAL COMPOSITIONS FOR PARENTERAL ADMINISTRATION OF A SUBSTITUTED AMIDE” (priority 2007, published 2010).

The nature of data set [1]: Aqueous solubility of Compound I. The data set is classed as physicochemical. The following applies: water.
The nature of data set [2]: Solubility of Compound I anhydrous Polymorph B in various liquid vehicles (suspension equilibrated at least 24 hours, filtered, HPLC). The data set is classed as physicochemical. The conditions noted are these: aqueous with cosolvent or surfactant or cyclodextrin, thermodynamic from solid. Here is the method:
Solubility determinations were carried out at room temperature unless otherwise specified. Solubility of N-[1S,2S]-3-(4-chlorophenyl)-2-(3-cyanophenyl)-1-methylpropyl]-2-methyl-2-{[5-trifluoromethyl]pyridine-2-yl}oxy}propanamide (Compound I) as anhydrous unsolvated Polymorph B (such as prepared in Preparatory Example 2) was determined by preparing a suspension of anhydrous Polymorph B of Compound I in the solvent system. After equilibration for at least 24 hours, the suspension was filtered and the supernatant was analyzed by HPLC. Chromatography was performed on either a Vydac C18 300 Å 250×4.6 mm 5 μm particle size with in-line Phenomenex Security Guard w/C18 cartridge or on a Polaris C18-Ether columns or on a Polaris C8-Ether columns using 0.1% phosphoric acid in combination with methanol or acetonitrile depending on HPLC conditions. The compound was detected at 220 and 272 nm wavelength and assayed using standard curves. The results are presented below in Table 1, calculated based on mg/g vehicle.

Where only a bound is given, the exact number is not on record here.

For orientation: solubility means the dissolved amount per volume that the medium holds. As for `C[C@H](NC(=O)C(C)(C)Oc1ccc(C(F)(F)F)cn1)[C@@H](Cc1ccc(Cl)cc1)c1cccc(C#N)c1` [Compound I, N-[1S,2S]-3-[(4-chlorophenyl)-2-(3-cyanophenyl)-1-methylpropyl]-2-methyl-2-{[(5-trifluoromethyl)pyridine-2-yl]oxy}propanamide], the solubility was under 0.4 µg/mL in data set [1]; 20 µg/mL in data set [2] (40% H2O, 35% Captisol, 15% glycerol, 10% EtOH, 40% H20, room temperature); 70 µg/mL in data set [2] (50% H2O, 25% PG, 25% PEG300, 50% H20, room temperature); under 1 µg/mL in data set [2] (90% H2O, 10% glycerol, 90% H20, room temperature); 80 µg/mL in data set [2] (94.5% H2O, 0.5% Tween80, 5% EtOH, 94.5% H20, room temperature); 80 µg/mL in data set [2] (95.5% H2O, 0.5% Tween80, 95.5% H20, room temperature). Moreover, the solubility in data set [2] (97.5% H2O, 2.5% Tween80, 97.5% H20, room temperature) was 400 µg/mL; in data set [2] (99.75% H2O, 0.25% Tween80, 99.75% H20, room temperature), 40 µg/mL; in data set [2] (0.5% Tween80, 95.5% Saline, room temperature), 80 µg/mL; in data set [2] (10% EtOH, 90% H2O, room temperature), under 1 µg/mL; in data set [2] (15% glycerol, 10% EtOH, 75% H2O, room temperature) it was under 1 µg/mL; in data set [2] (25% PEG400, 75% H2O, room temperature), 4 µg/mL. Also, the solubility in data set [2] (35% hydroxypropyl beta cyclodextrin, 18% glycerol, 10% EtOH, 37% H20, room temperature) worked out at 40 µg/mL.
